Consider eight compounds from ChEMBL document CHEMBL1201862, “PubChem BioAssay data set” (2004).

Calls of active or inactive are those of the source. Bounds are passed on as bounds.

For assay [1], the target named is Eukaryotic translation initiation factor 4E (Mus musculus, UniProt P63073). The experiment in a line: blockers of eIF4G binding by eIF4E – biochemical, TR-FRET, dose response (AID 855).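 Further: potency for disrupting eIF4E binding to eIF4GI seen as loss of FRET.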 It counts as functional.
The target in assay [2] is T1, Mu-type opioid receptor (Homo sapiens, UniProt P35372). Kind of assay: mu opioid receptor activators, image-based, SAR follow-up (AID 2352). It counts as functional.
Assay [3] deals with T2, Delta-type opioid receptor (Homo sapiens, UniProt P41143). The experiment in a line: delta opioid receptor blockers – image-based, SAR follow-up (AID 2357). It counts as functional.
Assay [4] has as its target T2, Delta-type opioid receptor. The experiment in a line: DOR agonists, SAR follow-up, image-based (AID 2370). It counts as functional.
Assay [5] concerns the target T3, Kappa-type opioid receptor (Homo sapiens, UniProt P41145). Kind of assay: kappa opioid receptor activation potency – imaging, image-based, SAR follow-up (AID 2359). It counts as functional.
Assay [6] has as its target T1, Mu-type opioid receptor. Kind of assay: mu opioid receptor blockers – image-based, SAR follow-up (AID 2420).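 Further: compounds added before stimulation of receptor with agonist DAMGO.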 It counts as functional.
In assay [7] the target is T3, Kappa-type opioid receptor. Kind of assay: kappa opioid receptor blockers, image-based, SAR follow-up (AID 2348). It counts as functional.
The target in assay [8] is T3, Kappa-type opioid receptor. The experiment in a line: kappa opioid receptor blockers, cell-based, luminescence, beta-arrestin, SAR follow-up (AID 2285). It counts as functional.
Assay [9] addresses Aminopeptidase N (Plasmodium falciparum FcB1/Columbia, UniProt O96935). The experiment in a line: malaria alanyl aminopeptidase activity blockers – biochemical, fluorogenic H-Leu-NHMec substrate, 1536-well (AID 1445). Further details: species or system Plasmodium falciparum 3D7, 3D7.
Assay [10] has as its target T4, Serine/threonine-protein phosphatase (Candida dubliniensis (strain CD36 / CBS 7987 / NCPF 3949 / NRRLY-17841) (Yeast), UniProt B9W6M3).
T4 sequence (B9W6M3 whole entry): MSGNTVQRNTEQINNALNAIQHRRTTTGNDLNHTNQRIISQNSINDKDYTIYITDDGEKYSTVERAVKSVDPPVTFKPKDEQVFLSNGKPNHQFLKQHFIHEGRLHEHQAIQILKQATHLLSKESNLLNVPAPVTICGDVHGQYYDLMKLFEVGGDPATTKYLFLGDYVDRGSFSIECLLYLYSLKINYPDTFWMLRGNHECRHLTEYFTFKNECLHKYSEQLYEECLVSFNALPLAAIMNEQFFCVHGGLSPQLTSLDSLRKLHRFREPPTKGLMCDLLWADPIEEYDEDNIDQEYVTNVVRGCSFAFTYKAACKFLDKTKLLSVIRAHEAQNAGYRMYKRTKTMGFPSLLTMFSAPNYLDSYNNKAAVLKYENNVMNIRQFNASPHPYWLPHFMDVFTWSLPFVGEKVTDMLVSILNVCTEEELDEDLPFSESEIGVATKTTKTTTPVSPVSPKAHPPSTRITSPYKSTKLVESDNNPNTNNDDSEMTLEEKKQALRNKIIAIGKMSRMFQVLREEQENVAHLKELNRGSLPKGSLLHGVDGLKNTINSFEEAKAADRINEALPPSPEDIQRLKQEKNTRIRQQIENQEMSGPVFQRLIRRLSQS
The experiment in a line: blockers of CaCl2-induced CDRE-lacZ signaling – S. cerevisiae, luminescence, secondary, dose response (AID 2388).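 Further: yeast reporter cells carrying a calcineurin-responsive lacZ construct stimulated with calcium chloride; luminescent beta-galactosidase reporter signal in whole cells rather than isolated phosphatase activity; potency for inhibition where a drop in reporter signal means calcineurin blockade.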 It counts as functional, cell-based.

Assay [11] in a line: NIH-3T3 fibroblast cytotoxicity, dose response, cytotoxicity control, cell-based, fluorescence, Alamar Blue, secondary assay (AID 2327).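 Further: NIH-3T3 mouse fibroblasts cultured with fluconazole at 8 µg/mL.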 It counts as functional. A general note: The colour change of resazurin is a common sign of viable cells or microbes.
Assay [12] addresses ATP-dependent molecular chaperone HSP82 (Candida albicans (strain WO-1) (Yeast), UniProt C4YTQ8). Kind of assay: steroid-induced GRE reporter decrease in yeast – S. cerevisiae, luminescence, Hsp90 inhibitor project, dose response (AID 2400).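 Further: beta-galactosidase luminescence from glucocorticoid response element reporter as proxy for Hsp90 function; inhibitor potency where signal loss means Hsp90 inhibition.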 It counts as functional, cell-based.
Assay [13] in a line: fluconazole-exposed Candida albicans growth modulators – fluorescence, retest, confirmation (AID 2467). It counts as functional, cell-based.
Assay [14] addresses Melanin-concentrating hormone receptor 1 (Homo sapiens, UniProt Q99705). The experiment in a line: Fluorescence-based counterscreen for antagonists of the G-protein coupled receptor 7 (GPR7): cell-based high throughput dose response assay to identify antagonists of the melanin-concentrating hormone receptor 1 (MCHR1). It counts as functional. A general note: Counterscreens check selectivity or assay interference.

Assay [15] has as its target Peroxisome proliferator-activated receptor gamma/Nuclear receptor coactivator 3 (Homo sapiens, UniProt P37231). Kind of assay: TR-FRET dose response biochemical High Throughput Screening assay for agonists of the steroid receptor coactivator 3 (SRC-3) recruitment by the peroxisome proliferator-activated receptor gamma (PPAR gamma): non-selective agonists. [Related pubchem assays: 1301 (Confirmation screen.), 1048 (Primary screen.)]. It counts as functional.

Assay [16] has as its target Peroxisome proliferator-activated receptor gamma/Nuclear receptor coactivator 1 (Homo sapiens, UniProt P37231). Kind of assay: TR-FRET dose response biochemical High Throughput Screening assay for agonists of the steroid receptor coactivator 1 (SRC-1) recruitment by the peroxisome proliferator-activated receptor gamma (PPAR gamma): non-selective agonists. [Related pubchem assays (depositor defined):AID1300, AID1808, AID504735, AID631]. It counts as protein assay. (In TR-FRET formats the signal depends on donor and acceptor labels being close together.)

In assay [17] the target is Peroxisome proliferator-activated receptor gamma/Nuclear receptor coactivator 2 (Homo sapiens, UniProt P37231). Kind of assay: TR-FRET dose response biochemical High Throughput Screening assay for agonists of the steroid receptor coactivator 2 (SRC-2) recruitment by the peroxisome proliferator-activated receptor gamma (PPAR gamma): non-selective agonists. [Related pubchem assays: 1297, 1032 ]. It counts as functional.

Assay [18] concerns the target Beta-lactamase (Pseudomonas aeruginosa, UniProt Q79MP6).
For assay [19], the target named is Beta-lactamase (Salmonella choleraesuis (strain SC-B67), UniProt Q5J463).
Assay [20] addresses Troponin, cardiac muscle (Homo sapiens, UniProt P19429+P45379+P63316). The experiment in a line: Fluorescence-based biochemical high throughput dose response assay for activators of the calcium sensitivity of cardiac Regulated Thin Filaments (RTF). [Related pubchem assays (depositor defined):AID493008, AID493018, AID504382, AID504383]. It counts as protein-complex assay.
Assay [21] is described as follows: viability of HCT116 lacking mutant beta-catenin – cell-based, human colon tumor, dose response (AID 1045).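 Further: HCT116 colon tumor cells with beta catenin knocked out; cells exposed to compound for 60 hours.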 It counts as functional.
For assay [22], the target named is Sphingosine 1-phosphate receptor 1 (Homo sapiens, UniProt P21453). It counts as functional.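 Further: Tango beta-arrestin reporter U2OS cells stimulated with S1P near its EC80; inhibitor potency meaning antagonism of receptor activation by the natural agonist.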
The nature of assay [23]: Trypanosoma cruzi growth suppression in host cells – NIH3T3 host cells, beta-gal luminescence, confirmation (AID 2044).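 Further: intracellular parasites grown in NIH/3T3 mouse fibroblasts as host cells; luminescent beta-galactosidase reporter signal from transgenic T. cruzi replicating inside host cells; inhibitors lower the luminescence signal.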 It counts as functional, cell-based.
A short description of assay [24]: NIH3T3 cell viability loss – ATP luminescence, mouse fibroblasts, counter-screen, dose response (AID 2010).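 Further: cells exposed to compound for about 90 hours before reading.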 It counts as functional, cell-based.
The nature of assay [25]: viability of PTEN-deleted HCT116 cells – cell-based, HCT116 PTEN knockout, dose response (AID 1047).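 Further: HCT116 colon tumor cells with PTEN knocked out; cells exposed to compound for 60 hours before readout; potency for loss of cell viability measured by luminescence.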 It counts as functional.
Assay [26] deals with G-protein coupled receptor 35 (Homo sapiens, UniProt Q9HC97). Kind of assay: inhibition of zaprinast-stimulated GPR35 beta-arrestin translocation – imaging, U2OS, beta-arrestin-GFP, zaprinast agonist, primary screen (AID 2058).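 Further: antagonist potency meaning inhibition of agonist-induced arrestin redistribution.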 It counts as functional.
The target in assay [27] is T5, Sphingosine 1-phosphate receptor 4 (Homo sapiens, UniProt O95977).
T5 sequence (O95977 whole entry): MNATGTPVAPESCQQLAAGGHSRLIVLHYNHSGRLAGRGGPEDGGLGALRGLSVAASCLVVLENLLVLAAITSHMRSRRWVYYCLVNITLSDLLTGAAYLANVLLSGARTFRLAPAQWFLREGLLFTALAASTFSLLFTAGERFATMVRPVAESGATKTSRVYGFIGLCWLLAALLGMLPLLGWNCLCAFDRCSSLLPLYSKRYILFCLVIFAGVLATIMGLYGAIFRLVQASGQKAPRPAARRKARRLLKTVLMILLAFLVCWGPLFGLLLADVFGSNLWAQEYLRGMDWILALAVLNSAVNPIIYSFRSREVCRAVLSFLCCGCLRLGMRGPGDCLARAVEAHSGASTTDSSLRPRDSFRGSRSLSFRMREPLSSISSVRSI
Kind of assay: Fluorescence dose response cell-based high throughput screening assay for antagonists of the Sphingosine 1-Phosphate Receptor 4 (S1P4). [Related pubchem assays: 1524 (Confirmation in triplicates.), 1510 (Primary screen.)]. It counts as functional.

T3 sequence (P41145 whole entry): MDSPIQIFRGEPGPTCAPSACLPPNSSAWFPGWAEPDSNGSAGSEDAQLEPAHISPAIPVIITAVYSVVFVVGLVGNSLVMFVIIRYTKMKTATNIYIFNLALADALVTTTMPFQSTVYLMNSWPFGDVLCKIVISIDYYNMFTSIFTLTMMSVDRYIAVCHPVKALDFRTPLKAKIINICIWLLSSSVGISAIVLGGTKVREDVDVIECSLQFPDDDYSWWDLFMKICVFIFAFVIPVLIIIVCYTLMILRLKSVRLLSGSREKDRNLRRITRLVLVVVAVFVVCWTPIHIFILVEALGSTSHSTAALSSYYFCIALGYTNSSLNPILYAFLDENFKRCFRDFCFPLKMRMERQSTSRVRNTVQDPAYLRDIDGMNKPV
Sequence of Eukaryotic translation initiation factor 4E (P63073 whole entry): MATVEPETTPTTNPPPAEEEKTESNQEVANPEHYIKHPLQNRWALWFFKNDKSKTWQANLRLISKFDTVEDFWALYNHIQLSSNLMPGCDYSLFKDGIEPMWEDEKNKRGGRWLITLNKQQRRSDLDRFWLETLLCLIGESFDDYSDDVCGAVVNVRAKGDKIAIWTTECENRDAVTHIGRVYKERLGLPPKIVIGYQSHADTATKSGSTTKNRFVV
T2 sequence (P41143 whole entry): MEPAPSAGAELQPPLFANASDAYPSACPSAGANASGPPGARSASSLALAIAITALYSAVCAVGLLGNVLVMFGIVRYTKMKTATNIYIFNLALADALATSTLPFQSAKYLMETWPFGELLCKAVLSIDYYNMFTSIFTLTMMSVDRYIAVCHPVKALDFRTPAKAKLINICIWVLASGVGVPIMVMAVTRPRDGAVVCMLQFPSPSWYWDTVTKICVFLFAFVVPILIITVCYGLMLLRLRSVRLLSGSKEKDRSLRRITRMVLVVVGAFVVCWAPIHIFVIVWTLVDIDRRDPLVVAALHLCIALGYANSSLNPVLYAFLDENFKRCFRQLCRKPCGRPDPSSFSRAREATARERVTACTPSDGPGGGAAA
T1 sequence (P35372 whole entry): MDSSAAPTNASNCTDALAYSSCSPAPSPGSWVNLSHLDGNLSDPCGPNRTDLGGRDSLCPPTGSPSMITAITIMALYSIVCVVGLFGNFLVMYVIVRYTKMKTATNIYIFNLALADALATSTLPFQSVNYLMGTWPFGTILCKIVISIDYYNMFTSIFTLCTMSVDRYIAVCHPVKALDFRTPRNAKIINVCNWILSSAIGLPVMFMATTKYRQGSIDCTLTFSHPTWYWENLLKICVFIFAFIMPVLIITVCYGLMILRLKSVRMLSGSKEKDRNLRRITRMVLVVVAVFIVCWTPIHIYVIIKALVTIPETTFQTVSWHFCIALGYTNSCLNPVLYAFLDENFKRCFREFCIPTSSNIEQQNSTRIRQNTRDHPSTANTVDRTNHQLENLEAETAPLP
Sequence of Peroxisome proliferator-activated receptor gamma/Nuclear receptor coactivator 1 (P37231 whole entry): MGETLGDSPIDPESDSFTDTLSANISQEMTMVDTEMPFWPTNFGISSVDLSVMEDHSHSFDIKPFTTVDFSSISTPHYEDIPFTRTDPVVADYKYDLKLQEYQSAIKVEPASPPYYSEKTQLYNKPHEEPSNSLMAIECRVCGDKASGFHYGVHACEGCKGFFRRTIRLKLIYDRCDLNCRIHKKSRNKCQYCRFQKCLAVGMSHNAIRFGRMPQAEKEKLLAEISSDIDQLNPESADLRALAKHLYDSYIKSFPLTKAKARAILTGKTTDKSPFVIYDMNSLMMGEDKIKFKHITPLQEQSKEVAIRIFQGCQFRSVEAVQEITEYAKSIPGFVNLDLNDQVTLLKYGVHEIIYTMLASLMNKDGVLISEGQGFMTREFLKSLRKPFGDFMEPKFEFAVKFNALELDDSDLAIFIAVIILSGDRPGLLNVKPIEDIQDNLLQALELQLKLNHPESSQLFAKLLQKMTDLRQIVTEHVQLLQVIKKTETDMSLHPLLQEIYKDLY
Sequence of Peroxisome proliferator-activated receptor gamma/Nuclear receptor coactivator 1 (Q15788 whole entry, further chain): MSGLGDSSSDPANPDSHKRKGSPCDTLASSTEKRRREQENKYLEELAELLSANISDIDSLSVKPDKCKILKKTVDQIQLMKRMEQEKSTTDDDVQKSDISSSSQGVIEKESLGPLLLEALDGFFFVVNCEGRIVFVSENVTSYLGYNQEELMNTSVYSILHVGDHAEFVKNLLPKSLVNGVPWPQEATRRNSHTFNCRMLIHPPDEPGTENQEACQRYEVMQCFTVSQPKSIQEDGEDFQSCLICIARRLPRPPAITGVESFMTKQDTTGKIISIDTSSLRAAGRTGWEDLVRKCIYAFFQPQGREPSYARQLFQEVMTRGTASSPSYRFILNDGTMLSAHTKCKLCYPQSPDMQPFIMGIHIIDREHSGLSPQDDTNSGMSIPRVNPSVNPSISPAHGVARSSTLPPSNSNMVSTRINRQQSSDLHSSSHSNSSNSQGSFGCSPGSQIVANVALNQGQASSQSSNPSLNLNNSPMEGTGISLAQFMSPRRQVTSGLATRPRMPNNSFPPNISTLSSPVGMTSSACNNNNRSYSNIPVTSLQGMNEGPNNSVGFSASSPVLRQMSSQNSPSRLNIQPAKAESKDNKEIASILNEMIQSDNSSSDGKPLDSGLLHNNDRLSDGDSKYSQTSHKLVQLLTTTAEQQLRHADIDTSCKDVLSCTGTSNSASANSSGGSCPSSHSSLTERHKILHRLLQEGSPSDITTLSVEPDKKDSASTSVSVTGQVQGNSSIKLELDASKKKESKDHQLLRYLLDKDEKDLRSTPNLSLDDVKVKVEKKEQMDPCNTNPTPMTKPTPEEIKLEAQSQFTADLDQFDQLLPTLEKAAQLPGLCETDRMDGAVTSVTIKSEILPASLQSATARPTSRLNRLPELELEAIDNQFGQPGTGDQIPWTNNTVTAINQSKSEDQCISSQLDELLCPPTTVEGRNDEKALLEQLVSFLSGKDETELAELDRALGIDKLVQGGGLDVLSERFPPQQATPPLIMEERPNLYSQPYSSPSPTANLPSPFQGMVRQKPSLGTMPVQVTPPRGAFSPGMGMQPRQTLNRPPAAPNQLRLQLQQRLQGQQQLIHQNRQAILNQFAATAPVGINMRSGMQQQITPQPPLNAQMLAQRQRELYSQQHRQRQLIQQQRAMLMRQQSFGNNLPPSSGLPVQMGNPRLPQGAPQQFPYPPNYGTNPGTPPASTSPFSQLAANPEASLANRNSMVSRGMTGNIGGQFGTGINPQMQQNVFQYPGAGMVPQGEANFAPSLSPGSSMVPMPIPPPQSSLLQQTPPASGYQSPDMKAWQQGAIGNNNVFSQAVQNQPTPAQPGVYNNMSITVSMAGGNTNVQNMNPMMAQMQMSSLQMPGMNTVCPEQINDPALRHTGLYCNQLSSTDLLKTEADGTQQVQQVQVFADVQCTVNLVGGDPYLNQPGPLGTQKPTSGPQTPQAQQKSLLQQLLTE
Sequence of Beta-lactamase (Salmonella choleraesuis (strain SC-B67), UniProt Q5J463) (Q5J463 whole entry): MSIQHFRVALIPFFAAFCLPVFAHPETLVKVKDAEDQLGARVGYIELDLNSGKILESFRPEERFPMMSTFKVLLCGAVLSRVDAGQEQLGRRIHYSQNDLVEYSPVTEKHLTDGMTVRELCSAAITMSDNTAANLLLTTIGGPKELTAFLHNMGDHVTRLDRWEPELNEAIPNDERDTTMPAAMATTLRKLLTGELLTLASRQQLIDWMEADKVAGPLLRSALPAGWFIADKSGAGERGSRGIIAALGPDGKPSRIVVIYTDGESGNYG
Sequence of Sphingosine 1-phosphate receptor 1 (P21453 whole entry): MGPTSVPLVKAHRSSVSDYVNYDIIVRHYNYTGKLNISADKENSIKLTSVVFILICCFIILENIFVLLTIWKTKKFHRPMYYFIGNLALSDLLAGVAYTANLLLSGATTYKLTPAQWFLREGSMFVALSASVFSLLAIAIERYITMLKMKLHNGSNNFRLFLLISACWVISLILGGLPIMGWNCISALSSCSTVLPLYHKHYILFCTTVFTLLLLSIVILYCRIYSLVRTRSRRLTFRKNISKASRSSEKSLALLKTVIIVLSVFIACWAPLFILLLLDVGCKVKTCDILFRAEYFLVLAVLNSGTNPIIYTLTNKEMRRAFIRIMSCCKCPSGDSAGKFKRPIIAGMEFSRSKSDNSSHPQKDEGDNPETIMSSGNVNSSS
Sequence of Beta-lactamase (Pseudomonas aeruginosa, UniProt Q79MP6) (Q79MP6 whole entry): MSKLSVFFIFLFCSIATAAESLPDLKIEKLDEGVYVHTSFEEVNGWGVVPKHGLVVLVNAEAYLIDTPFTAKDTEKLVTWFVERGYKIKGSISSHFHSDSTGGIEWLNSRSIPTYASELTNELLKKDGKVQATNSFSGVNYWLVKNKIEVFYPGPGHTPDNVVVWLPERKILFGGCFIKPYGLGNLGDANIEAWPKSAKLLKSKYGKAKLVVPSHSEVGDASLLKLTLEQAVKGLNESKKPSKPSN
Sequence of G-protein coupled receptor 35 (Q9HC97 whole entry): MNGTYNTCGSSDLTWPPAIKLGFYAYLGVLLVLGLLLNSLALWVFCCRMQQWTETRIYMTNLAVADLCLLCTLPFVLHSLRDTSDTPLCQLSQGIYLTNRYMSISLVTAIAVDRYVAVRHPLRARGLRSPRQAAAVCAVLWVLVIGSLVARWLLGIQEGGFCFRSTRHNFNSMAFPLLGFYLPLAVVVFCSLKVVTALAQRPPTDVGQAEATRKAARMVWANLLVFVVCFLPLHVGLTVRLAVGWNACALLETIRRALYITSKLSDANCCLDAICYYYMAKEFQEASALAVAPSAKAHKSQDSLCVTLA
Sequence of Melanin-concentrating hormone receptor 1 (Q99705 whole entry): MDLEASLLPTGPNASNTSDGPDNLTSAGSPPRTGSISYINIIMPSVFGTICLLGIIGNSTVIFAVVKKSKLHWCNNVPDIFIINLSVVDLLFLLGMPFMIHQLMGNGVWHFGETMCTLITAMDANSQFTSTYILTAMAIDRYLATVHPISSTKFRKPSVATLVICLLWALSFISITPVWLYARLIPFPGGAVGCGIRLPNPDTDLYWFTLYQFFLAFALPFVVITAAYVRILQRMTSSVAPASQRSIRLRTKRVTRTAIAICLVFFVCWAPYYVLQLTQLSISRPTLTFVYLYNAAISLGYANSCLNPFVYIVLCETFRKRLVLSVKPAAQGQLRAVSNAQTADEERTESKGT

The term IC50 denotes the concentration needed to halve the response being measured. Regarding `COC(=O)C1=C(C)NC(=O)C1(Nc1ccc(Cl)cn1)C(F)(F)F` (stereo not drawn), the IC50 in assay [1] is > 64 µM (inactive).
One may read the EC50 as the concentration giving half of the maximal effect. Take `Cc1ccc(NC(=S)NC(NC(=O)OCc2ccccc2)C(Cl)(Cl)Cl)c(C)c1` (stereo not drawn): the EC50 in assay [2], in assay [4] and in assay [5] was > 32 µM (inactive) each time. Further, the IC50 in [3] is > 32 µM (inactive); in assay [6] it was > 32 µM (inactive); in assay [7], 1.98 µM (active); in assay [8], 8.74 µM (active).
Take `CCn1c(O)c(N=NC(=O)c2cccs2)c2ccccc21`: the IC50 in [9] is 70.2 µM (active). Also, the EC50 is > 180 µM (inactive) in assay [10], 43.6 µM (active) in assay [11], 31.2 µM (active) in [12] and 1.09 µM (active) in [13].
As for `CN1CCN(c2ccccc2NC(=O)Cc2ccc(Cl)cc2)CC1`, the IC50 in assay [14] is given as 36 µM (not active).
In the case of `Sc1n[nH]c(-c2cc(Cl)ccc2Cl)n1`, the figures for the EC50 in assay [15], in [16] and in assay [17] were > 79.4 µM (not active), > 79.4 µM (inactive) and > 26.5 µM (not active), respectively.
Regarding `COC(=O)c1c(C)cc(OC(C)=O)c(C)c1OC(C)=O`, the IC50 in assay [1] is > 64 µM (inactive).
For `CN(/N=C/c1ccc(-c2ccc([N+](=O)[O-])cc2)o1)c1ccccc1`, the IC50 in assay [18] and in [19] was > 59.6 µM (inactive) throughout. In assay [20], the EC50 is 1.44 µM (active).
Consider `COc1cc(/C=C(/C)[N+](=O)[O-])ccc1OCc1ccccc1Cl`, for which the EC50 in assay [21] was 8.05 µM (active); in [23], 2.07 µM (active); in assay [24] it was 9.08 µM (active); in [25] it was 8.96 µM (active). The IC50 in [22] is 7.64 µM (active); in [26] it was 2.45 µM (active); in [27], 0.727 µM (active).
